Laboratory results reported in patent US11331368B2, “Angiotensin receptor agonists and uses thereof” (Monash University, priority 2017, dated 2022).
One block for each compound: values may come before it.

How the values were obtained:
human AT2R = molecular target: T1, human AT2R (Homo sapiens, UniProt P50052); test: Competition radioligand binding (125I-Sar1-Ile8-AngII) in AT2R-transfected HEK-293 cells; conditions: for Fold AT2R selectivity: AT2R over AT1R, Table 3
T1 construct: expressed in transfected cells
T1 sequence (P50052 1-363): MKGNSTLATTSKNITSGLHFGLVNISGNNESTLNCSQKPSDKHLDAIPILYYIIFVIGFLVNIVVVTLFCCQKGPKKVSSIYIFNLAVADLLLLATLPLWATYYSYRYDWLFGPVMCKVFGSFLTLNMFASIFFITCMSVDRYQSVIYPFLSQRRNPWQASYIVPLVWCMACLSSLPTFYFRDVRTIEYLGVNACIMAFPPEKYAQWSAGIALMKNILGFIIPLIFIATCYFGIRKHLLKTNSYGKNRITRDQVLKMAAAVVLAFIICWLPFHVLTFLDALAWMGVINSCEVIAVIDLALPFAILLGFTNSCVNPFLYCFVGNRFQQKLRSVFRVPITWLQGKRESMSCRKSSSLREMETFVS

[1] = tested on: male FVB/N mice on high salt diet, heart; test: High salt (5%) diet intervention model, heart; type: in vivo, mouse; conditions: for MMP-13 protein expression in heart (Western blot) / macrophage infiltration/expression in heart (F4/80) / expression of P-IκBα (marker for NFκB activation) in heart: weeks 5-8, captopril 3 mg/kg/day; for MMP-13 protein expression in heart (Western blot) / macrophage infiltration/expression in heart (F4/80): peptide 75 pmol/kg/min s.c.; for MMP-13 protein expression in heart (Western blot) / macrophage infiltration/expression in heart (F4/80) / expression of P-IκBα (marker for NFκB activation) in heart / cardiac fibrosis (picrosirius red): Cand 2 mg/kg/day; for expression of P-IκBα (marker for NFκB activation) in heart: peptides 75 pmol/kg/min s.c.; for cardiac fibrosis (picrosirius red): weeks 5-8 of high salt diet, peptides 75 pmol/kg/min s.c. mini-pump, captopril 3 mg/kg/day in drinking water
Description: (§1) C) In the intervention (or reversal) model, male FVB/N mice were treated with selective AT2Rs agonists after the establishment of cardiovascular disease using a high salt diet, in order to reverse cardiovascular pathologies. In some experiments, the ACE inhibitor captopril (dose) or the ARB candesartan cilexetil (dose) were given for 4 weeks in drinking water. Organs examined included heart, kidney and liver and these were compared to either untreated mice or high salt-fed mice that were treated with saline.
A high-salt diet (5% salt) model is a clinically relevant and disease-reversal model which can replicate the high salt intake by humans which is currently a growing problem in the developed countries. High salt intake induces changes in the cardiovascular system and induces remodelling and fibrosis in the heart, kidney and liver.
(§2) Mice were placed on either a normal rodent diet (0.35% NaCl) which acted as control or a high salt diet (5% sodium in food chow) for 8 weeks. After 4 weeks, mice were also treated subcutaneously (via osmotic mini-pump) with either saline or an AT2R agonist (75 pmol/kg/min subcutaneously) for 4 weeks. Mice continued to be fed a high salt diet whilst receiving these treatments.
All mice which underwent surgery were anaesthetized with Isoflurane (Isorrane) (5% induction and 2.5% maintenance) and an incision made in the midscapular region through which osmotic minipumps (Alzet model 2004, Alza Corp) were inserted for subcutaneous drug administration. The incision area was sutured with 6/0 DY silk (Dynek Pty Ltd) and antibiotic powder applied (Cicatrin, Pfizer) followed by intramuscular injection of the analgesic Cartrophen (0.1 ml of a 1.5 mg/ml stock solution; Biopharm Australia). Systolic blood pressure (SBP) was measured using non-invasive tail-cuff plethysmography apparatus (MC4000 Blood Pressure Analysis System, Hatteras Instrument Inc) before drug treatment (week 0), and then fortnightly. At the end of the 8 week treatment period mice were weighed before being killed by overdose of isoflurane inhalation and cervical dislocation.
To measure collagen deposition, frozen sections of heart, kidney or aorta (all 5 μm thickness) were air dried for 10 minutes and were brought through 3 times xylene (2 minutes each), and 3 times absolute alcohol washes before being rinsed in tap H2O for 30 seconds. Staining with an optimal concentration of picrosirius red (in this instance 0.05% picrosirius red diluted in saturated picric acid) was performed and left for an hour. Sections were then rinsed in water and differentiated in 0.01M HCl for 2 minutes, followed by dehydration via 3 times absolute alcohol washes. Then, slides were brought through 3 times xylene washes before being cover slipped according to standard histological techniques using DPX as the mounting medium. Images were taken under ×20 magnification, using bright field (Olympus, BX51) and circularized polarized light microscopy (DM IRB, Leica) while percentage of positive interstitial collagen staining per total field of view was quantified using ImageJ 1.46 software (Java, NIH), and averaged out from a total of eight views as the final percentage collagen content in a particular animal.
Immunostaining was performed on 5 μm thick transverse frozen heart sections. These sections were air dried and fixed in ice-cold acetone for approximately 15 minutes before washing with 0.01M PBS buffer (3×10 minutes). Sections were then incubated with 10% goat serum in 0.01M PBS for 30 minutes to reduce non-specific binding. If the primary antibody is raised in goat, this pre-blocked medium is substituted with 5% BSA in PBS and Triton-X. Next, blocking buffers were removed and the primary antibody to respective markers were applied overnight at room temperature based on the following dilution and origin of the antibodies: α-SMA (1:500, Abcam), Vimentin (1:500, Santa Cruz), P-IκBα (1:200, Cell Signalling), F4/80 macrophage (1:100, Serotec). […]

[2] = tested on: male FVB/N mice on high salt diet, liver; test: High salt (5%) diet intervention model, liver; type: in vivo, mouse; conditions: weeks 5-8; peptides 75 pmol/kg/min s.c.; Cand 2 mg/kg/day, captopril 3 mg/kg/day
Description: as §1, §2
Liver sections used either picrosirius red staining or Masson's trichome staining as described above. Higher concentrations of picrosirius red were often used under polarized light microscopy. The liver was removed and sectioned with half of the liver placed in 10% formalin and the rest frozen in liquid nitrogen before being stored in ˜80° C. freezer for future use. Formalin fixed, paraffin embedded livers were sectioned at thickness of 4 μm and were stained with Masson's trichrome according to standard procedures for analysis of liver fibrosis. […] Sections were re-fixed in Bouin's solution for 1 hour at 56° C. to improve staining quality then rinsed in running tap water for 5-10 minutes to remove yellow colour. Following this, sections were stained in Weigert's iron hematoxylin working solution for 10 minutes. Rinsed in running warm tap water for 10 minutes. Washed in distilled water. Stained in Biebrich scarlet-acid fuchsin solution for 10-15 minutes.
Washed in distilled water. Differentiated in phosphomolybdic-phosphotungstic acid solution for 10-15 minutes or until collagen was no longer red. Sections were transferred directly (without rinse) to aniline blue solution and stained for 5-10 minutes. Rinsed briefly in distilled water and differentiated in 1% acetic acid solution for 2-5 minutes. Washed in distilled water. […] Mounted with DPX mounting medium. Quantification of liver fibrosis was performed using images captured with the Aperio scanner (Monash Histology Platform, Monash University), with ×5 magnification. Each liver section had 5 different fields of view photographed at this magnification. Percentage of interstitial and perivascular collagen was analysed and quantified using ImageJ 1.48 software (Java, NIH), and the percentage from 5 random fields of view were averaged for final percentage of collagen for that particular animal. All analysis of collagen expression was conducted in a blinded fashion.

human AT1R = molecular target: T2, human AT1R (Homo sapiens, UniProt P30556); test: Competition radioligand binding (125I-Sar1-Ile8-AngII) in AT1R-transfected HEK-293 cells
T2 construct: expressed in transfected cells
T2 sequence (P30556 1-359): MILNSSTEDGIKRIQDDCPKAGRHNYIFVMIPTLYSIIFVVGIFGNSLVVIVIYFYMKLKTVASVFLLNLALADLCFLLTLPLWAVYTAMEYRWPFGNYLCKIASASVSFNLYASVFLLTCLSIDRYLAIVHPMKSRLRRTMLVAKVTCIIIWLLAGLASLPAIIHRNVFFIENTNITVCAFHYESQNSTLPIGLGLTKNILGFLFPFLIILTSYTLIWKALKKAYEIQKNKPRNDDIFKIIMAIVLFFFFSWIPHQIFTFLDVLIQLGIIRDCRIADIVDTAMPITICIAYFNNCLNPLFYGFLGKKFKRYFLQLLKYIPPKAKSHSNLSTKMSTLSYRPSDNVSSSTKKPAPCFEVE

[3] = PD123319 1 mg/kg/day s.c. with β-Pro7-Ang III or D-Arg2-β-Pro7-Ang III

Compound: Tetrazole-CONH- Arg-Val-Tyr-Ile-His- β-Pro-Phe [Tet-βPro-Ang III]
Fold AT2R selectivity (human AT2R): >60,000 fold

Compound: C[C@H](CS)C(=O)N1CCC[C@H]1C(=O)O [captopril, reference compound]
MMP-13 protein expression in heart (Western blot) [1]: Neither captopril nor Cand altered MMP-13 levels
macrophage infiltration/expression in heart (F4/80) [1]: reversed by all agents
expression of P-IκBα (marker for NFκB activation) in heart [1]: reversed only by β-Ile^5-Ang II
cardiac fibrosis (picrosirius red) [1]: also reversed fibrosis
liver fibrosis (picrosirius red, polarized light) [2]: similarly inhibited the pro-fibrotic effects of high salt in the liver
liver steatosis (Oil Red O) [2]: significantly reduced excess lipid accumulation

Compound: Cc1cc(Cn2cnc3c2C[C@@H](C(=O)O)N(C(=O)C(c2ccccc2)c2ccccc2)C3)ccc1N(C)C [PD123319, reference compound]
effect of AT2R antagonist co-treatment on peptide anti-fibrotic effect (cardiac fibrosis, picrosirius red) [1, 3]: attenuated the anti-fibrotic effects of these peptides
effect of AT2R antagonist co-treatment on peptide inhibition of myofibroblast differentiation (α-SMA) [1, 3]: attenuated the inhibitory effects of these peptides

Compound: CC[C@H](C)[C@H](NC(=O)C[C@H](Cc1ccc(O)cc1)NC(=O)[C@@H](NC(=O)[C@@H](N)CCCNC(=N)N)C(C)C)C(=O)N[C@@H](Cc1c[nH]cn1)C(=O)N1CCC[C@H]1C(=O)N[C@@H](Cc1c[nH]c2ccccc12)C(=O)O [βTyr-Trp-8-Ang III, Arg-Val-β-Tyr-Ile-His-Pro-Trp]
binding at AT1R (displacement of 125I-Sar1-Ile8-AngII), in words (human AT1R): bind poorly
binding at AT2R (displacement of 125I-Sar1-Ile8-AngII), in words (human AT2R; transfected HEK-293 cells): high affinity

Compound: CCOc1nc2cccc(C(=O)OC(C)OC(=O)OC3CCCCC3)c2n1Cc1ccc(-c2ccccc2-c2nnn[nH]2)cc1 (stereo not drawn) [candesartan cilexetil, reference compound]
MMP-13 protein expression in heart (Western blot) [1]: Neither captopril nor Cand altered MMP-13 levels
macrophage infiltration/expression in heart (F4/80) [1]: reversed by all agents
expression of P-IκBα (marker for NFκB activation) in heart [1]: reversed only by β-Ile^5-Ang II
cardiac fibrosis (picrosirius red) [1]: did not significantly reduce fibrosis

Results, then the compound that gave them:

Fold AT2R selectivity (human AT2R): >2500 fold
Compound: Arg-Val-Tyr-β-Ile-His-Pro-Trp [βILe-Trp-8-Ang III]

Fold AT2R selectivity (human AT2R): 200 fold
Compound: Arg-Val-Tyr-Ile-His-β-Pro-Ala [βPro-Ala-8-Ang III]

IC50 (human AT1R; 125I-Sar1-Ile8-AngII): > 10 µM
Fold AT2R selectivity (human AT2R): 400 fold
Compound: CC[C@H](C)[C@H](NC(=O)[C@H](Cc1ccc(O)cc1)NC(=O)[C@@H](NC(=O)[C@H](N)CCCNC(=N)N)C(C)C)C(=O)N[C@@H](Cc1c[nH]cn1)C(=O)N1CCC[C@H]1C(=O)N[C@@H](Cc1ccccc1)C(=O)O [D-Arg-Ang III, D-Arg-Val-Tyr-Ile-His-Pro-Phe]

Fold AT2R selectivity (human AT2R): 1854 fold
Compound: β-Arg-Val-Tyr-Ile-His-Pro-Trp [βArg-Trp-8-Ang III]

Fold AT2R selectivity (human AT2R): >275,000 fold
Compound: Tetrazole-CONH-Arg-Val-Tyr-Ile-His-β-Pro-Trp [Tet-βPro-Trp-8-Ang III]
